These are literature values, as cited in patent US5500433A, “Method of treating drug abuse” (Merrell Pharmaceuticals Inc., priority 1995, dated 1996).

In data set [1] the test system is vascular smooth muscle cells. Conditions: rabbit vascular smooth muscle cells.
The next data set deals with coronary vessels. To be noted: patients with stable angina.
The subject of data set [2] is preference for alcohol and cocaine. To be noted: rodent.
Another data set has as its system thrombus formation. Conditions: canine models.
For data set [3], the system named is phospholipase C mediated hydrolysis of phosphoinositides. To be noted: rabbit vascular smooth muscle cells.

With `NCCc1c[nH]c2ccc(O)cc12` [serotonin], the “effect on PDGF induced DNA synthesis” value in data set [1] is “stimulates PDGF induced DNA synthesis”. In addition, the “effect on coronary vessel constriction” value in the data set with coronary vessels was “induced constriction of the coronary vessels in these patients at all concentrations tested”.
As to `Cc1nc2sccn2c(=O)c1CCN1CCC(=C(c2ccc(F)cc2)c2ccc(F)cc2)CC1` [ritanserin], the “effect on preference for alcohol and cocaine” value in data set [2] is “abolished the preference for both alcohol and cocaine”.
As to `O=C(c1ccc(F)cc1)C1CCN(CCn2c(=O)[nH]c3ccccc3c2=O)CC1` [Ketanserin], in the data set with thrombus formation, the “prevention of thrombus formation” value is listed as “extremely effective in preventing thrombus formation”. The “effect on PDGF induced DNA synthesis” value in data set [1] is given as “inhibited PDGF induced DNA synthesis”. Also, in data set [3], the “inhibition of phospholipase C mediated hydrolysis of phosphoinositides” value is “inhibited phospholipase C mediated hydrolysis of phosphoinositides”. Moreover, in the data set on coronary vessels, the “effect on coronary vessel constriction” value is recorded as “blocked coronary vessel constriction”.
